Columns and labels:
Assay type in all cases: cell-based
in vitro = details: human, nasal epithelial cells
Description: Regarding hyaluronic acid, insolubility at concentrations above 0.5% w/v prevented the testing of higher concentrations. As for xylitol, a high in vitro cytotoxicity at concentrations above 0.5% w/v prevented the testing of higher concentrations.

[1] = test system: Human Nasal Epithelial Cells (HNEpC); assay: Proliferation assay (MTT); details: Epithelial cell, 24 hours
Protocol: (§1) In vitro studies were performed to assess the proliferation and re-epithelialization activity of compositions containing hyaluronic acid and xylitol as individual components and in combination. Three independent trials were carried out with 4 replicates per experimental trial.
(§2) Solutions in basal culture medium of hyaluronic acid (HA, White powder,CAS number 9067-32-7, MW: 1000-1400 kDa, Givaudan France SAS xylitol (Xyl,. White crystalline powder, CAS number 87-99-0 Roquette) or combinations of hyaluronic acid and xylitol at different concentrations were tested.
(§3) Human Nasal Epithelial Cells (HNEpC) from a primary cell line isolated from normal human nasal mucosa were purchased form PromoCell (ref: C-12620). The cell line was maintained in supplemented culture medium according to the supplier guidelines and was routinely grown as a monolayer in tissue culture grade flasks. When cells exceeded 70% confluence (but less than 90%), they were sub-cultured on new culture flasks. All the cell cultures were maintained in standard cell culture conditions (37 °C, 5% CO2 and 95% humidity).
MTT, a yellow tetrazole, is reduced to purple formazan by cell metabolic activity. This reduction is proportional to the amount of living cells in the well and, therefore, to cell proliferation over time. Cells cultured in 96-well plates were treated with the test compositions for 24 hours (37 °C, 5% CO2). After 24 hours of incubation, cells were washed with PBS and stained with MTT solution and incubated at 37 °C for 2 hours. At the end of this incubation period, the staining medium was removed and 100 µL of DMSO/well were added to solubilize the colored precipitate. The absorbance was read at 540 nm in the spectrophotometer plate reader. The cell proliferation percentage was calculated relative to the negative control, a condition in which cells were not treated with any product. Cells with treatments and negative control were cultured with basal medium. As positive control, cells were cultured in supplemented medium. The % of cell proliferation was calculated by the following formula: • % proliferation = AbT/AbC x 100 • AbT = absorbance at 540 nm after 24 hours of treatment • AbC = absorbance at 540 nm of the negative control (24 hours of cells growing in basal medium)

[2] = test system: Human Nasal Epithelial Cells (HNEpC); assay: Re-epithelialization (scratch) assay; details: 0.5% compound separately (FIG. 2)
Protocol: as §1, §2
as §3, with “All the cell cultures were maintained in standard cell culture conditions (37 °C, 5% CO2 and 95% humidity).” left out
Cells were seeded in both sides of inserts attached on culture wells and were incubated in supplemented medium at 37 °C and 5% CO2. […] The area of the scratch was calculated using ImageJ software. The percentage of scratch closure (re-epithelialization percentage) was calculated relative to the negative control, a condition in which cells were not treated with any product. […]

MCC (in vitro): > 5000 µg/mL
Structure (SMILES): OC[C@@H](O)[C@H](O)[C@@H](O)CO [Xyl, xylitol]
activation at 0.125 % ([1]; 0.125% compound alone, read-out: increase of cell proliferation in relation to negative control): 0%
activation at 0.5 % ([1]; 0.5% compound alone, read-out: increase of cell proliferation in relation to negative control): 0%
activity at 0.125 % strength ([1]; basal medium, relative to negative control (100%), compound concentration 0.125 %w/v): 99.9%
activity at 0.5 % strength ([1]; basal medium, relative to negative control (100%), compound concentration 0.5 %w/v): 98.2%
scratch closure after 72 hours of exposure [2]: did not
